Reference: patent publication EP4631938A1, “NITROGEN-CONTAINING HETEROCYCLE WITH SEROTONIN RECEPTOR-BINDING ACTIVITY AND CARBOCYCLIC DERIVATIVE” (Shionogi & Co., Ltd, priority 2022, dated 2024)
Read-outs that look alike come from different tables or passages of the source.

What was measured:
[1] = target: T1, human recombinant 5-HT2A receptor (Homo sapiens, UniProt P28223); experiment: Test Example 1: 5-HT2A receptor binding inhibition test ([3H]-Ketanserin; non-specific ligand Serotonin HCl)
T1 construct: expressed in transfected cells; host or cells: Jump-In HEK cells (membrane preparation)
Description: The Kd value is calculated when the lot of the cell membrane is changed. 1 mmol/L non-specific binding calculating compound dissolved in DMSO or DMSO is previously dispensed to the microplate by 0.5 µL, and the cell membrane is diluted with an Assay buffer. The radioactive ligand solution is diluted step by step, and counts are checked with a liquid scintillator. The Assay buffer containing diluted cell membranes is dispensed by 50 µL/well into the microplate. The radioactive ligand solution is then dispensed by 50 µL/well into the microplate and the plate is sealed. The microplate is allowed to stand for 1.5 hours at room temperature (25°C). During this time, 50 mmol/L Tris-HCl (pH 7.4) is dispensed by 50 µL/well on the GF/B UniFilter plate and allowed to stand at 4°C for 1 hour or longer. Thereafter, filtration is performed with a Cell Harvester (PerkinElmer). The radioactive ligand solution is dispensed by 10 µL/well into empty wells of the GF/B UniFilter plate. After drying the GF/B UniFilter plate at room temperature, MicroScinti20 is dispensed by 50 µL/well into the GF/B UniFilter plate, and the plate is sealed. GF/B UniFilter plate is allowed to stand at room temperature overnight. The radioactivity of [^3H]-Ketanserin bound to the 5-HT2A receptor is measured using Microbeta2 (PerkinElmer) at a measurement time of 1 min/well. The Saturation curve is drawn from the measured value, and the Kd value is calculated from the slope of the Scatchard Plot.
A compound solution dissolved in DMSO is dispensed to a microplate by 0.5 µL, and a cell membrane and a hot ligand are each diluted with an Assay buffer. The Assay buffer containing diluted cell membrane is then dispensed by 50 µL/well into the microplate. The radioactive ligand solution is then dispensed by 50 µL/well into the microplate and the plate is sealed. Thereafter, the microplate is allowed to stand at room temperature (25°C) for 1.5 hours. During this time, 50 mmol/L Tris-HCl (pH 7.4) is dispensed by 50 µL/well into the GF/B UniFilter plate and allowed to stand at 4°C for 1 hour or longer. Thereafter, filtration is performed with a Cell Harvester (PerkinElmer). After drying the GF/B UniFilter plate at room temperature, MicroScinti20 is dispensed by 50 µL/well into the GF/B UniFilter plate, and the plate is sealed. GF/B UniFilter plate is allowed to stand at room temperature overnight. The radioactivity of [^3H]-Ketanserin bound to the 5-HT2A receptor is measured using Microbeta2 (PerkinElmer) at a measurement time of 1 min/well. Non-specific binding is calculated from the radioactivity of [^3H]-Ketanserin in the presence of 500 µmol/L Serotonin HCl of unlabeled ligand, and total binding is calculated from the radioactivity of [^3H]-Ketanserin in the absence of the compound of the present invention (Vehicle). Finally, the Ki value is calculated from the dose-response curve.
(The binding activity of the compound according to the present invention is calculated from the following binding inhibition rate (%).) Inhibition rate (%) = [1−(c−a)/(b−a)] × 100 [formula] • a; average cpm of non-specific binding • b; average cpm of total binding • c; cpm in the presence of the test compound
The compounds of the present invention were tested essentially as described above.

CYP3A4 = target: T2, CYP3A4 (Homo sapiens, UniProt P08684); experiment: Test Example 8: CYP3A4 (MDZ) MBI test; format: in vitro ADME; conditions: pooled human liver microsomes; substrate 10 µmol/L MDZ; pre-reaction 0 or 30 minutes; compound 0.83, 5, 10, 20 µmol/L
T2 construct: pooled human liver microsomes by 1-hydroxylation reaction of midazolam (MDZ) as a marker reaction; from tissue; host or cells: pooled human liver microsomes
Description: CYP3A4 (MDZ) MBI test is a test of investigating MBI potential on CYP3A4 by the enhancement of inhibitory degree of a metabolic reaction caused by the compound of the present invention. CYP3A4 inhibition is evaluated using pooled human liver microsomes by 1-hydroxylation reaction of midazolam (MDZ) as a marker reaction.
The reaction conditions are as follows: substrate, 10 µmol/L MDZ; pre-reaction time, 0 or 30 minutes; substrate reaction time, 2 minutes; reaction temperature, 37°C; pooled human liver microsomes, at pre-reaction 0.5 mg/mL, at reaction 0.05 mg/mL (at 10-fold dilution); concentrations of the compound of the present invention, at pre-reaction 0.83, 5, 10, 20 µmol/L (4 points).
Pooled human liver microsomes and a solution of the compound of the present invention in K-Pi buffer (pH 7.4) as a pre-reaction solution are added to a 96-well plate at the composition of the pre-reaction. A part of pre-reaction solution is transferred to another 96-well plate, and diluted 10-fold by K-Pi buffer containing a substrate. NADPH as a cofactor is added to initiate a reaction as a marker reaction (without preincubation). After a predetermined time of the reaction, methanol/acetonitrile=1/1 (V/V) solution is added to stop the reaction. NADPH is also added to the remaining pre-reaction solution to initiate the pre-reaction (with pre-reaction), and after the pre-reaction for a predetermined time, a part is transferred to and diluted 10-fold by K-Pi buffer containing a substrate to initiate the reaction as a marker reaction. After a predetermined reaction time, the reaction is stopped by adding a methanol/acetonitrile = 1/1 (V/V) solution. Each plate where the indicator reaction has been performed is centrifuged at 3000 rpm for 15 minutes. Then, midazolam 1-hydroxide in the centrifuged supernatant is quantified by LC/MS/MS.
The sample adding DMSO as a solvent to a reaction system instead of a solution dissolving the compound of the present invention is adopted as a control (100 %). Remaining activity (%) is calculated at each concentration of the compound of the present invention compared to a control, and IC value is calculated by reverse-presumption by a logistic model using a concentration and an inhibition rate. Shifted IC value is calculated as "IC of preincubation at 0 minutes/ IC of preincubation at 30 minutes". When a shifted IC is 1.5 or more, this is defined as positive. When a shifted IC is 1.0 or less, this is defined as negative.

T2 sequence (P08684 whole entry): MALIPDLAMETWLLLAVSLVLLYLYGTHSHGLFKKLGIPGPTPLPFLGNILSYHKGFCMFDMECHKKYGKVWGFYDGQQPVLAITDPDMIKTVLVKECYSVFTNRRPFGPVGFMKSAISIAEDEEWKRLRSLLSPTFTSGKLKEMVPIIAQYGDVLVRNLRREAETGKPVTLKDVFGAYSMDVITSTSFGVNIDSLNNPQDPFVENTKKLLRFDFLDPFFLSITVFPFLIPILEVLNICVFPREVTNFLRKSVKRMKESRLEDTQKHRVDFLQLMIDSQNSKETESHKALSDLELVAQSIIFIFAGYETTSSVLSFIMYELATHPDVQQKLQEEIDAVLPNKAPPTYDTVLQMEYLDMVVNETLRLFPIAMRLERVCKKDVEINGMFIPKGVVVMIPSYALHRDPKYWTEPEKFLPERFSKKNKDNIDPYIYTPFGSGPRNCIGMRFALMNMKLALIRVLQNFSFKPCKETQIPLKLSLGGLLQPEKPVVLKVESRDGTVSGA
T1 sequence (P28223 whole entry): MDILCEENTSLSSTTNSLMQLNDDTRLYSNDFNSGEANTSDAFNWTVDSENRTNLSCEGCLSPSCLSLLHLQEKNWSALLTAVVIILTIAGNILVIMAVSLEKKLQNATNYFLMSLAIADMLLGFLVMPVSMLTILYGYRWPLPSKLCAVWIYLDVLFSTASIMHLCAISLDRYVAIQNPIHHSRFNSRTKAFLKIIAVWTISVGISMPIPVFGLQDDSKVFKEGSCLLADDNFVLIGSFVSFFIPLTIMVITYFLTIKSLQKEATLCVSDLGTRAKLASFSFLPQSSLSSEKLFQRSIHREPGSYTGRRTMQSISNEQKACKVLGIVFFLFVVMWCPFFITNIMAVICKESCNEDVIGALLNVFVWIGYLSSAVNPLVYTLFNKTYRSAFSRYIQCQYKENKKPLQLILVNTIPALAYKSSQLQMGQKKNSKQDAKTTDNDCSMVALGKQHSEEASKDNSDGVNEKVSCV

Row | Structure (SMILES) | CYP3A4 (MDZ) MBI (shifted IC: IC of preincubation at 0 minutes/ IC of preincubation at 30 minutes) (CYP3A4) | further results
1 | Cn1ncc(Br)c1-c1cc(Nc2ncc(C(F)(F)F)cc2F)ccc1OCCO [Compound I-006] |  | Ki [1]: 0.317 nM
2 | Cc1nc(COC2COC2)nc(C)c1-c1cc(Nc2ncc(C(F)(F)F)cc2Cl)ncc1OCCO [Compound I-376] | Negative (When a shifted IC is 1.0 or less, this is defined as negative) | 
3 | COCc1nc(C)c(-c2cc(Nc3ncc(OC(F)(F)F)cc3Cl)ncc2OCCO)c(C)n1 [Compound I-200] | Negative (When a shifted IC is 1.0 or less, this is defined as negative) | 
4 | Cc1nc(CO[C@@H]2CCOC2)nc(C)c1-c1cc(Nc2ncc(C(F)(F)F)cc2Cl)ncc1OCCO [Compound I-378] | Negative (When a shifted IC is 1.0 or less, this is defined as negative) | 
5 | Cc1cnn(C)c1-c1cc(Nc2ncc(C(F)(F)F)cc2F)ccc1OCCO [Compound I-008] |  | Ki ([1]; [3H]-Ketanserin, non-specific binding with 500 µmol/L Serotonin HCl, room temperature (25°C), 1.5 hours, read-out: h 5-HT2A Ki): 0.344 nM
6 | COCc1nc(C)c(-c2nc(Nc3ccc(C(F)(F)F)c(C)n3)c(F)cc2OCCO)c(C)n1 [Compound I-247] | Negative (When a shifted IC is 1.0 or less, this is defined as negative) | 
7 | Cn1ncc(F)c1-c1cc(Nc2ncc(C(F)(F)F)cc2F)cnc1OCCO [Compound I-127] | Negative (When a shifted IC is 1.0 or less, this is defined as negative) | 
